Data set [1] concerns epimastigote stage of T. cruzi. In words: Antiparasitic activity, alamarBlue, epimastigotes. The format is cell-based, Trypanosoma cruzi. As to conditions: for IC50: epimastigote stage of T. cruzi (Y strain), 72 h, alamarBlue, mean ± SD, NA: not active; for Selectivity index (SI): ratio of CC50 for J774A.1 and IC50 for epimastigotes of T. cruzi. As to the method:
Epimastigotes of Trypanosoma cruzi (Y strain) were used in this study and cultured in liver infusion tryptose (LIT) medium supplemented with 10% of foetal bovine serum (FBS) at 26 °C.
In a sterile 96-well plate, a serial dilution of acrylonitriles was carried out in LIT medium supplemented with 10% FBS with a final volume of 100 µL. Parasites were added to wells to reach a concentration of 10^5 parasites per well. Finally, a 10% of alamarBlue Cell Viability Reagent® (ThermoFisher Scientific, Waltham, MA, USA) was added into each well, and the plate was incubated for 72 h at 26°C.
In general terms: Resazurin is reduced to fluorescent resorufin, in cell work by metabolically active cells.

For data set [2], the system named is epimastigotes of Trypanosoma cruzi. The experiment in a line: Reactive oxygen species analysis (CellROX Deep Red). In kind it is cell-based. The note with it: 24 h with the IC90, Figure 5. As to the method: The CellROX® reagent emits red fluorescence in the presence of reactive oxygen species.
The oxidative stress was measured with the CellROX® Deep Red Reagent (ThermoFisher Scientific, MA, USA). […] Finally, the fluorescence was analyzed using the EVOS® FL Cell Imaging System (ThermoFisher Scientific, MA, USA) with the Cy5 light cube.

Data set [3] has the same test system. The experiment in a line: Chromatin condensation analysis (Hoechst 33342/propidium iodide). The format is cell-based. The note with it: 24 h with the IC90, Figure 1. As to the method:
Vybrant® Apoptosis Assay Kit n°5, Hoechst 33342/Propidium Iodide (ThermoFisher Scientific, MA, USA) was used to determinate the chromatin condensation of the treated parasites. […] Thereafter, Hoechst (5 µg/mL) and propidium iodide (PI) (1 µg/mL) were added and incubated for 20 min at 26 °C. The EVOS® FL Cell Imaging System (ThermoFisher Scientific, MA, USA) was used to capture the fluorescence images, using the DAPI (Hoechst) and RFP (PI) light cubes.

The test system of another data set is Trypanosoma cruzi. The experiment in a line: Programmed cell death study (overall conclusion from the PCD assays). The format is cell-based. The note with it: overall conclusion from ROS, mitochondrial potential, ATP and chromatin condensation assays. As to the method: Different assays were performed to elucidate which pathways could be triggered by these acrylonitriles. The most probable cellular process induced by our compounds is the apoptosis or programmed cell death (PCD), in which the inflammatory response is weakly activated, in contrast to a necrotic event, where the inflammatory response is strong.

Data set [4] in a line: Cytotoxicity, alamarBlue, murine macrophages. The format is cell-based. The note with it: mouse, J774A.1 murine macrophage cell line, J774A.1 murine macrophages, mean ± SD. As for the experimental part:
The cytotoxicity was evaluated against murine macrophages (J774A.1) using the same method mentioned in the antiparasitic assay, based on the alamarBlue Cell Viability Reagent®. In a sterile 96-well plate, 10^4 cells per well were added, then, after the complete adhesion, serial dilutions of the 32 compounds, using a deep well plate, and a 10% of alamarBlue® were joined.

Data set [5] has as its system epimastigotes of Trypanosoma cruzi. The experiment in a line: ATP level analysis (CellTiter-Glo). In kind it is cell-based. As to conditions: 24 h with the IC90, CellTiter-Glo, Figure 3. As to the method: Variations in the level of ATP were measured with the CellTiter-Glo® Luminescent Cell Viability Assay (Promega, WI, USA). […] Then, in a white 96-well plate, the epimastigotes were resuspended in 25µL of culture media and mixed with 25 µL of the kit. After 10 min of incubation at room temperature, the luminescence was measured using an EnSpire Multimode Plate Reader® (PerkinElmer). The results were expressed in percentage of production of ATP level relative to the negative control (without any treatment).
A general note: In ATP-based viability assays light output follows the ATP content of the culture.

For data set [6] the test system is unchanged. The experiment in a line: Plasmatic membrane permeability analysis (SYTOX Green). The format is cell-based. The note with it: 24 h with the IC90, Figure 4. As to the method: The use of the dye SYTOX® Green reagent means that when the plasmatic permeability is altered, it is possible for the reagent to go inside the cells, joining the parasitic DNA and emitting an intense green fluorescence.
To determine the plasmatic membrane permeability, SYTOX® Green nucleic acid stain fluorescent dye (ThermoFisher Scientific, MA, USA) was used. […] The pellet was resuspended in a 50 µL staining buffer and the Sytox® Green at 1 µM (final concentration). After 15 min of incubation at room temperature, parasites were analyzed. Fluorescence pictures were taken with the EVOS® FL Cell Imaging System (ThermoFisher Scientific, MA, USA).

Broadly, the IC50 is the concentration that gives 50% inhibition. Low readings indicate greater potency, high ones weaker potency. In general, CC50 refers to the concentration giving 50% cytotoxicity.

Molecules are shown by their SMILES. Where only a bound is given, the exact number is not on record here.

For the compound `CCOP(=O)(/C=C/C#N)OCC` [Compound Q18, (E)-Diethyl 2-cyanovinylphosphonate], the IC50 in data set [1] is 14.8 ± 3.06 µM. Also, in data set [2], the “Reactive oxygen species (CellROX Deep Red fluorescence)” value (“Reactive oxygen species” below) is listed as “less intense fluorescence”. Besides, the “Dead cells (propidium iodide red fluorescence)” value (“Dead cells” for short) in data set [3] is on record as “red fluorescence, indicating already dead cells”.
Turning to `COC(=O)/C=C\C#N` [Compound Q2, (Z)-Methyl 3-cyanoacrylate], in the data set on Trypanosoma cruzi, the “Induction of programmed cell death (apoptosis-like process)” value (from here on “Induction of programmed cell death”) was “did not show evidence of causing a programmed cell death mechanism”. The IC50 in data set [1] (Trypanosoma cruzi) worked out at 25.9 ± 2.78 µM. For the same compound, it took 112 ± 15.8 µM to reach half-maximal cytotoxicity in data set [4] (CC50 at 24 h).
In data set [1] (Trypanosoma cruzi), `N#C/C=C/C(=O)CCc1ccccc1` [Compound Q17, (E)-4-Oxo-6-phenylhex-2-enenitrile] showed an IC50 of 14.1 ± 2.53 µM. Moreover, in data set [1], the “Selectivity index (SI)” value is given as 0.37. Further, in data set [4], it took 5.24 ± 0.7 µM to reach half-maximal cytotoxicity (CC50 at 24 h).
Take `CCOC(=O)/C=C/C#N` [Compound Q3, (E)-Ethyl 3-cyanoacrylate]: the “Induction of programmed cell death” value in the data set on Trypanosoma cruzi is “did not show evidence of causing a programmed cell death mechanism”. For the same compound, the half-maximal inhibitory concentration (IC50) in data set [1] (Trypanosoma cruzi) is 46.4 ± 5.73 µM. The compound further gave a CC50 at 24 h in data set [4] of 86.7 ± 22.8 µM. For the same compound, the “Reactive oxygen species” value in data set [2] is “most intense red fluorescence”.
`N#C/C=C/C(=O)c1ccccc1` [Compound Q11, (E)-4-Oxo-4-phenylbut-2-enenitrile]: inhibition in data set [1] (Trypanosoma cruzi) was half-maximal at 5.53 ± 1.36 µM (IC50). In addition, in data set [1], the “Selectivity index (SI)” value is reported as 0.94. In data set [4], this compound registered a CC50 at 24 h of 5.22 ± 1.02 µM.
Consider `COC(=O)/C=C/C#N` [Compound Q1, (E)-Methyl 3-cyanoacrylate], for which, in the data set on Trypanosoma cruzi, the “Induction of programmed cell death” value was “did not show evidence of causing a programmed cell death mechanism”. Further, the IC50 in data set [1] (Trypanosoma cruzi) was determined as 17.4 ± 4.75 µM. Also, half-maximal cytotoxicity in data set [4] (CC50 at 24 h) was put at 87.4 ± 7.02 µM.
On to `N#C/C=C/P(=O)(c1ccccc1)c1ccccc1` [Compound Q19, (E)-3-(diphenylphosphoryl)acrylonitrile], for which the “Induction of programmed cell death” value in the data set with Trypanosoma cruzi was “robust evidence of inducing all the physiological features of an apoptosis-like process”. For the same compound, the “Percentage of ATP level relative to untreated control” value in data set [5] is 30.78%. For the same compound, it took 14.6 ± 3.44 µM to reach half-maximal inhibition in data set [1] (Trypanosoma cruzi) (IC50). For the same compound, the “Plasma membrane permeability (SYTOX Green fluorescence)” value (shortened to “Plasma membrane permeability”) in data set [6] is reported as “more remarkable”. The compound also returned a CC50 at 24 h in data set [4] of 22.2 ± 3.24 µM. Also, in data set [3], the “Chromatin condensation (Hoechst 33342 blue fluorescence)” value (“Chromatin condensation” below) was “intense blue fluorescence in the nucleus, indicating chromatin condensation” and the “Dead cells” value is recorded as “red fluorescence, indicating already dead cells”.
For `N#C/C=C/C(=O)c1ccco1` [Compound Q15, (E)-4-(Furan-2-yl)-4-oxobut-2-enenitrile], the IC50 in data set [1] (Trypanosoma cruzi) was determined as 32.9 ± 0.83 µM. Further, the “Selectivity index (SI)” value in data set [1] amounted to 0.20. Moreover, the half-maximal cytotoxic concentration (CC50) at 24 h in data set [4] turned out to be 6.66 ± 1.77 µM.
In the case of `CN(C(=O)/C=C/C#N)c1ccccc1` [Compound Q29, (E)-3-Cyano-N-methyl-N-phenylacrylamide], in the data set with Trypanosoma cruzi, the “Induction of programmed cell death” value is recorded as “robust evidence of inducing all the physiological features of an apoptosis-like process”. Moreover, the “Percentage of ATP level relative to untreated control” value in data set [5] is reported as under 1%. Besides, the IC50 in data set [1] (Trypanosoma cruzi) came out at 138 ± 14 µM. Further, the “Plasma membrane permeability” value in data set [6] is “more remarkable”. The compound also returned a CC50 at 24 h in data set [4] of 327.9 ± 2.85 µM. In data set [2], the “Reactive oxygen species” value was “less intense fluorescence”. In addition, in data set [3], the “Chromatin condensation” value is listed as “intense blue fluorescence in the nucleus, indicating chromatin condensation” and the “Dead cells” value was “red fluorescence, indicating already dead cells”.
Consider `CCCCCCCCOC(=O)/C=C/C#N` [Compound Q5, (E)-Octyl 3-cyanoacrylate], for which the “Induction of programmed cell death” value with Trypanosoma cruzi was “robust evidence of inducing all the physiological features of an apoptosis-like process”. In addition, half-maximal inhibition in data set [1] (Trypanosoma cruzi) (IC50) required 34.3 ± 1.67 µM. Moreover, in data set [6], the “Plasma membrane permeability” value was “more remarkable”. Further, in data set [4], the CC50 at 24 h stood at 53.9 ± 12.8 µM. Further, the “Reactive oxygen species” value in data set [2] is given as “less intense fluorescence”. Besides, in data set [3], the “Chromatin condensation” value is recorded as “intense blue fluorescence in the nucleus, indicating chromatin condensation” and the “Dead cells” value was “red fluorescence, indicating already dead cells”.
As to `N#C/C=C/C(=O)N1CCCC1` [Compound Q25, (E)-4-Oxo-4-(pyrrolidin-1-yl)but-2-enenitrile], the “Induction of programmed cell death” value in the data set with Trypanosoma cruzi is “did not show evidence of causing a programmed cell death mechanism”. Moreover, the IC50 in data set [1] (Trypanosoma cruzi) is 154 ± 19.8 µM. The compound further showed a CC50 at 24 h in data set [4] of 374 ± 47.9 µM.
On to `CCOC(=O)/C=C\C#N` [Compound Q4, (Z)-Ethyl 3-cyanoacrylate], for which it took 47.3 ± 10.6 µM to reach half-maximal inhibition in data set [1] (Trypanosoma cruzi) (IC50). Also, the “Selectivity index (SI)” value in data set [1] is recorded as 0.91. For the same compound, the CC50 at 24 h in data set [4] is 43.2 ± 9.83 µM.
For the compound `Cc1ccc(S(=O)(=O)/C=C/C#N)cc1` [Compound Q21, (E)-3-Tosylacrylonitrile], inhibition in data set [1] (Trypanosoma cruzi) was half-maximal at 3.86 ± 0.67 µM (IC50). Also, the “Selectivity index (SI)” value in data set [1] came out at 0.83.
In data set [1] (Trypanosoma cruzi), `N#C/C=C\C(=O)c1ccccc1` [Compound Q12, (Z)-4-Oxo-4-phenylbut-2-enenitrile] had an IC50 of 20.9 ± 4.61 µM. For the same compound, the “Selectivity index (SI)” value in data set [1] is on record as 0.36. For the same compound, the CC50 at 24 h in data set [4] was determined as 7.64 ± 1.21 µM.
For the compound `CON(C)C(=O)/C=C\C#N` [Compound Q28, (Z)-3-Cyano-N-methoxy-N-methylacrylamide], the CC50 at 24 h in data set [4] turned out to be 210 ± 8.99 µM.
Take `N#C/C=C\P(=O)(c1ccccc1)c1ccccc1` [Compound Q20, (Z)-3-(diphenylphosphoryl)acrylonitrile]: 49.1 ± 1.12 µM corresponded to half-maximal inhibition in data set [1] (Trypanosoma cruzi) (IC50). The “Selectivity index (SI)” value in data set [1] was determined as 1.03. In data set [4], this compound displayed a CC50 at 24 h of 50.6 ± 10.8 µM.
For `N#C/C=C/C(=O)C1CCCCC1` [Compound Q16, (E)-4-Cyclohexyl-4-oxobut-2-enenitrile], in that order: 7.65 ± 1.51 µM, 0.57 and 4.35 ± 0.25 µM.
For `CCCCCCCCOC(=O)/C=C\C#N` [Compound Q6, (Z)-Octyl 3-cyanoacrylate], in that order: 51.9 ± 7.69 µM, 0.55 and 28.8 ± 2.53 µM.
Turning to `N#C/C=C/C(=O)c1cccs1` [Compound Q13, (E)-4-Oxo-4-(thiophen-2-yl)but-2-enenitrile], in data set [1] (Trypanosoma cruzi), the half-inhibitory concentration (IC50) was 25 ± 0.62 µM. Besides, the “Selectivity index (SI)” value in data set [1] amounted to 0.34. This compound also gave a half-maximal cytotoxic concentration (CC50) at 24 h in data set [4] of 8.52 ± 0.04 µM.
Take `N#C/C=C\C(=O)Oc1ccccc1` [Compound Q8, (Z)-phenyl 3-cyanoacrylate]: the “Induction of programmed cell death” value with Trypanosoma cruzi was “shown to induce an apoptosis-like cell death”. The IC50 in data set [1] (Trypanosoma cruzi) was found to be 4.36 ± 0.26 µM. In addition, the CC50 at 24 h in data set [4] turned out to be 52.9 ± 4.51 µM. For the same compound, the “Reactive oxygen species” value in data set [2] is “less intense fluorescence”.
Turning to `CCCCCC(=O)/C=C/C#N` [Compound Q10, (E)-4-Oxonon-2-enenitrile], in data set [1] (Trypanosoma cruzi), the IC50 amounted to 11 ± 1.38 µM. Moreover, the “Selectivity index (SI)” value in data set [1] is listed as 0.92. This compound yielded a CC50 at 24 h in data set [4] of 10.1 ± 1.46 µM.
The compound `N#C/C=C\C(=O)c1cccs1` [Compound Q14, (Z)-4-Oxo-4-(thiophen-2-yl)but-2-enenitrile] came in with an IC50 in data set [1] (Trypanosoma cruzi) of 26.5 ± 2.83 µM. Moreover, in data set [4], the CC50 at 24 h amounted to 8.39 ± 0.25 µM.
